pIC50: −log10 of the molar value. Counter-ions that a name gives are not always drawn. Like-named read-outs stand apart in the source and are kept apart here.
Legend:
H460 = assay: cells; type: cell-based; settings: for pIC50: Homo sapiens
HT29 = assay: cells; type: cell-based; settings: for pIC50: Homo sapiens, HT-29, 2 h
[1] = NCI-H460, read-out: 2 h Air H460 monolayer IC50
[2] = NCI-H460, read-out: 2 h N2 H460 monolayer IC50
[3] = NCI-H460, 2 h, read-out: 2 hr Air H460 IC50
[4] = NCI-H460, 2 h, read-out: 2 hr N2 H460 IC50

Compound	pIC50 (H460; [1])	pIC50 (H460; [2])	H460 HCR: Air/N2 (H460)	pIC50 (H460; [3])	pIC50 (H460; [4])	also measured
Cc1cc(OS(=O)(=O)Cc2ccsc2[N+](=O)[O-])ccc1N(CCCl)CCCl [TH-1103]	6.15	7.00	–	–	–	–
Cn1c(CS(=O)(=O)Nc2ccc(N(CCCl)CCCl)cc2)cnc1[N+](=O)[O-] [TH-1104]	5.13	5.21	–	–	–	–
O=[N+]([O-])c1nccn1CS(=O)(=O)Nc1ccc(N(CCCl)CCCl)cc1 [TH-1105]	5.12	5.38	–	–	–	–
Cc1cc(OS(=O)(=O)Cn2ccnc2[N+](=O)[O-])ccc1N(CCCl)CCCl [TH-1106]	6.05	6.70	–	–	–	–
CN(c1ccc(N(CCCl)CCCl)cc1)S(=O)(=O)Cc1cnc([N+](=O)[O-])n1C [TH-1108]	4.82	4.96	–	–	–	–
Cc1cc(OS(=O)(=O)Cc2ncc([N+](=O)[O-])n2C)ccc1N(CCCl)CCCl [TH-1110]	5.85	5.68	–	–	–	–
Cc1cc(OS(=O)(=O)Cc2ncn(C)c2[N+](=O)[O-])ccc1N(CCCl)CCCl [TH-1111]	5.33	5.60	–	–	–	–
Cc1cc(OS(=O)(=O)Cc2nc(C)n(C)c2[N+](=O)[O-])ccc1N(CCCl)CCCl [TH-1112]	5.85	5.77	–	–	–	–
Cc1cc(OS(=O)(=O)C(C)(C)c2ccc([N+](=O)[O-])cc2)ccc1N(CCCl)CCCl [TH-1115]	4.89	5.52	–	–	–	–
Cc1cc(OS(=O)(=O)C(C)(C)c2ccc([N+](=O)[O-])cc2)ccc1N(CCBr)CCBr [TH-1116]	5.96	6.22	–	–	–	–
Cc1cc(OS(=O)(=O)Cc2ccoc2[N+](=O)[O-])ccc1N(CCCl)CCCl [TH-1117]	5.64	5.96	–	–	–	–
CN(c1ccc(N(CCCl)CCCl)cc1)S(=O)(=O)Cc1ccsc1[N+](=O)[O-] [TH-1118]	4.89	5.17	–	–	–	–
Cn1c(CN(c2ccc(N(CCCl)CCCl)cc2)S(=O)(=O)CCl)cnc1[N+](=O)[O-] [TH-1119]	< 3.52	< 3.52	–	–	–	–
Cc1cc(OS(=O)(=O)C(C)(C)c2ccsc2[N+](=O)[O-])ccc1N(CCCl)CCCl [TH-1121]	5.89	6.52	–	–	–	–
CC(c1ccc([N+](=O)[O-])cc1)S(=O)(=O)N(C)c1ccc(N(CCCl)CCCl)cc1 (centres unmarked) [TH-1122]	< 3.52	< 3.52	–	–	–	–
CN(c1ccc(N(CCCl)CCCl)cc1)S(=O)(=O)Cc1ccc([N+](=O)[O-])cc1 [TH-1123]	< 3.52	< 3.52	–	–	–	–
CN(c1ccc(N(CCCl)CCCl)cc1)S(=O)(=O)C(C)(C)c1ccc([N+](=O)[O-])cc1 [TH-1124]	3.54	3.61	–	–	–	–
Cc1cc(CS(=O)(=O)N(C)c2ccc(N(CCCl)CCCl)cc2)c([N+](=O)[O-])s1 [TH-1125]	3.83	4.16	–	–	–	–
Cn1c(CN(c2ccc(N(CCCl)CCCl)cc2)S(=O)(=O)C(F)(F)F)cnc1[N+](=O)[O-] [TH-1128]	3.57	3.53	–	–	–	–
CN(c1ccc(N(CCCl)CCCl)cc1)S(=O)(=O)Cc1nc(-c2ccccc2)c([N+](=O)[O-])n1C [TH-1129]	5.16	5.44	–	–	–	–
CN(c1ccc(N(CCCl)CCCl)cc1)S(=O)(=O)C(C)(C)c1nc(-c2ccccc2)c([N+](=O)[O-])n1C [TH-1130]	3.91	4.19	–	–	–	–
Cc1cc(CS(=O)(=O)Oc2ccc(N(CCCl)CCCl)c(C)c2)c([N+](=O)[O-])s1 [TH-1131]	6.00	6.52	–	–	–	–
Cc1cc(C(C)(C)S(=O)(=O)Oc2ccc(N(CCCl)CCCl)c(C)c2)c([N+](=O)[O-])s1 [TH-1132]	5.70	6.52	–	–	–	–
O=[N+]([O-])c1nccn1CS(=O)(=O)Nc1cc(F)c(N(CCCl)CCCl)c(F)c1 [TH-1133]	4.95	5.23	–	–	–	–
Cc1cc(OS(=O)(=O)C(C)(C)n2ccnc2[N+](=O)[O-])ccc1N(CCCl)CCCl [TH-1134]	6.70	> 7.00	–	–	–	–

Compound	pIC50 (H460; [1])	pIC50 (H460; [2])	H460 HCR: Air/N2 (H460)	pIC50 (H460; [3])	pIC50 (H460; [4])	also measured
CN(c1cc(F)c(N(CCCl)CCCl)c(F)c1)S(=O)(=O)Cn1ccnc1[N+](=O)[O-] [TH-1135]	5.04	5.47	–	–	–	–
CN(c1cc(F)c(N(CCCl)CCCl)c(F)c1)S(=O)(=O)C(C)(C)n1ccnc1[N+](=O)[O-] [TH-1136]	5.29	5.30	–	–	–	–
Cn1c(CS(=O)(=O)Nc2cc(F)c(N(CCCl)CCCl)c(F)c2)cnc1[N+](=O)[O-] [TH-1137]	4.69	5.08	–	–	–	–
CN(c1cc(F)c(N(CCCl)CCCl)c(F)c1)S(=O)(=O)Cc1cnc([N+](=O)[O-])n1C [TH-1138]	4.47	4.87	–	–	–	–
O=[N+]([O-])c1sccc1C(Cc1ccc2c(ccn2CCO)c1)S(=O)(=O)Oc1ccc(N(CCCl)CCCl)cc1 (centres unmarked) [TH-1140]	–	–	114	3.94	6.00	–
CN(c1ccc(N(CCBr)CCBr)cc1)S(=O)(=O)Cn1ccnc1[N+](=O)[O-] [TH-1141]	6.30	7.00	–	–	–	–
CCc1nc([N+](=O)[O-])n(C)c1CS(=O)(=O)N(C)c1ccc(N(CCCl)CCCl)cc1 [TH-1145]	4.11	5.42	–	–	–	–
O=[N+]([O-])c1sccc1CS(=O)(=O)Oc1ccc(N(CCCl)CCCl)c(F)c1 [TH-1192, 3-((3-Fluoro-4-(N,N-bis-(2-chloroethyl)amino)phenoxy)sulfonyl)methyl-2-nitrothiophene]	–	–	39	4.23	5.82	HT29 HCR: Air/N2 (HT29): 20; pIC50 (HT29; read-out: 2 hr Air HT29 IC50): 3.79; pIC50 (HT29; read-out: 2 hr N2 HT29 IC50): 5.10
O=[N+]([O-])c1sccc1C(CNS(=O)(=O)c1ccccc1)S(=O)(=O)Oc1ccc(N(CCCl)CCCl)cc1 (centres unmarked) [TH-1218, 3-(4-(N,N-bis-(2-Chloroethyl)amino)phenoxysulfonyl-(phenylsulfonylaminomethyl))methyl-2-nitrothiophene]	–	–	106	4.13	6.15	pIC50 (HT29; read-out: 2 hr Air HT29 IC50): < 3.52; pIC50 (HT29; read-out: 2 hr N2 HT29 IC50): < 3.52
Nc1ccc(CC(c2ccsc2[N+](=O)[O-])S(=O)(=O)Oc2ccc(N(CCCl)CCCl)cc2)cn1 (centres unmarked) [TH-1255, 3-(4-(N,N-bis-(2-Chloroethyl)amino)phenoxysulfonyl-(2-aminopyridin-5-yl-methyl))methyl-2-nitrothiophene trifluoroacetate]	–	–	30.7	4.21	5.70	HT29 HCR: Air/N2 (HT29): 16; pIC50 (HT29; read-out: 2 hr Air HT29 IC50): 3.69; pIC50 (HT29; read-out: 2 hr N2 HT29 IC50): 4.89
CS(=O)(=O)N(c1ccc(CC(c2ccsc2[N+](=O)[O-])S(=O)(=O)Oc2ccc(N(CCCl)CCCl)cc2)cn1)S(C)(=O)=O (centres unmarked) [TH-1257]	–	–	424.0	3.67	6.30	pIC50 (HT29; read-out: 2 hr Air HT29 IC50): < 3.52; pIC50 (HT29; read-out: 2 hr N2 HT29 IC50): < 3.52
O=[N+]([O-])c1sccc1C(Cc1ccc(NS(=O)(=O)C(F)(F)F)nc1)S(=O)(=O)Oc1ccc(N(CCCl)CCCl)cc1 (centres unmarked) [TH-1262]	–	–	150	4.05	6.22	–
CC(=O)Nc1ccc(CC(c2ccsc2[N+](=O)[O-])S(=O)(=O)Oc2ccc(N(CCCl)CCCl)cc2)cn1 (centres unmarked) [TH-1271]	–	–	236	3.63	6.00	HT29 HCR: Air/N2 (HT29): 1.3; pIC50 (HT29; read-out: 2 hr Air HT29 IC50): 3.01; pIC50 (HT29; read-out: 2 hr N2 HT29 IC50): 3.12
CS(=O)(=O)Nc1ccc(CC(c2ccsc2[N+](=O)[O-])S(=O)(=O)Oc2ccc(N(CCCl)CCCl)cc2)cn1 (centres unmarked) [TH-1272]	–	–	91	3.54	5.49	–
O=[N+]([O-])c1sccc1C(CCS(=O)(=O)c1ccccc1)S(=O)(=O)Oc1ccc(N(CCCl)CCCl)cc1 (centres unmarked) [TH-1278]	–	–	205	4.21	6.52	pIC50 (HT29; read-out: 2 hr Air HT29 IC50): < 3.00; pIC50 (HT29; read-out: 2 hr N2 HT29 IC50): < 3.00
Cc1ccc(S(=O)(=O)NCC(c2ccsc2[N+](=O)[O-])S(=O)(=O)Oc2ccc(N(CCCl)CCCl)cc2)cc1 (centres unmarked) [TH-1312]	–	–	31	3.91	5.41	–
O=[N+]([O-])c1sccc1C(Cc1ccc(Cl)nc1)S(=O)(=O)Oc1ccc(N(CCCl)CCCl)cc1 (centres unmarked) [TH-1341]	–	–	43	3.84	5.47	–
CC(C)(C)OC(=O)NCC(=O)Nc1ccc(CC(c2ccsc2[N+](=O)[O-])S(=O)(=O)Oc2ccc(N(CCCl)CCCl)cc2)cn1 (centres unmarked) [TH-1351]	–	–	49	~3.52	5.21	–
O=[N+]([O-])c1sccc1C(Cc1ccc(N2CCC[C@H]2CO)nc1)S(=O)(=O)Oc1ccc(N(CCCl)CCCl)cc1 (some centres unmarked) [TH-1430]	–	–	500	3.52	6.22	–
CN(CCO)c1ccc(CC(c2ccsc2[N+](=O)[O-])S(=O)(=O)Oc2ccc(N(CCCl)CCCl)cc2)cn1 (centres unmarked) [TH-1434]	–	–	83	4.30	6.22	–
O=[N+]([O-])c1sccc1C(Cc1ccc(O[C@@H]2CCC[C@H]2O)nc1)S(=O)(=O)Oc1ccc(N(CCCl)CCCl)cc1 (some centres unmarked) [TH-1452]	–	–	55	3.96	5.70	–
O=[N+]([O-])c1sccc1C(Cc1ccc2nn(CCO)nc2c1)S(=O)(=O)Oc1ccc(N(CCCl)CCCl)cc1 (centres unmarked) [TH-1458]	–	–	60	4.52	6.30	–
C[C@H](O)C(=O)Nc1ccc(CC(c2ccsc2[N+](=O)[O-])S(=O)(=O)Oc2ccc(N(CCCl)CCCl)cc2)cc1 (some centres unmarked) [TH-1468]	–	–	75	4.52	6.40	–
COCC(=O)Nc1ccc(CC(c2ccsc2[N+](=O)[O-])S(=O)(=O)Oc2ccc(N(CCCl)CCCl)cc2)cn1 (centres unmarked) [TH-1477]	–	–	43	4.89	6.52	–
C[C@H](O)[C@H](C)Oc1ccc(CC(c2ccsc2[N+](=O)[O-])S(=O)(=O)Oc2ccc(N(CCCl)CCCl)cc2)cn1 (some centres unmarked) [TH-1486]	–	–	36	4.44	6.00	–

From patent US8309554B2 (priority 2008, dated 2012)
